A word on the AC50: it is the concentration giving half of the maximal activity seen.

Each structure is given as a SMILES string. A value given as a limit tells only on which side of the number the result lay.

This experiment has as its system INS-1E rat beta cells, no cytokines, CellTiter-Glo ATP, 48 h. The experiment in a line: ATP level change in INS-1E without cytokines, dose response, counter-screen for beta-cell apoptosis protection project, INS-1E rat cells, ATP luminescence, cherry pick (AID 463229).
On to `CCOc1ccc(/C=N/NC(=O)c2[nH]ncc2Br)c(O)c1`, for which the AC50 is 3.66 µM. The value for `COc1ccc(-c2nc(-c3ccccn3)no2)cc1` was 3.11 µM; that for `O=S1(=O)C=C(Sc2nc3ccccc3s2)c2ccccc21` was 5.35 µM. As for `Cc1ccccc1NC1=C/C(=N\S(=O)(=O)c2cccs2)c2ccccc2C1=O`, the AC50 was 1.79 µM. Consider `O=C(NCc1nc(-c2ccc(C(F)(F)F)cc2)no1)Nc1cc(Cl)cc(Cl)c1`, for which the AC50 was 6.94 µM.

Consider `Cc1ccc(NC(=S)N/N=C/c2ccc([N+](=O)[O-])s2)cc1`, for which the AC50 is 6.79 µM. As for `O=C(Nc1nc(-c2ccccn2)cs1)c1ccc(Br)s1`, the AC50 was 6.75 µM. The value for `CN(C)c1nc(N/N=C/c2ccccc2O)nc(Nc2ccc(F)cc2)n1` was 11.3 µM; that for `Cn1nc(C(C)(C)C)cc1C(=O)NCc1ccc2c(c1)OCO2` was 4.47 µM. The value for `CCCCCCSc1cc(-c2nc3ccc(C)cn3c2NCc2ccccc2)ccc1OC` was 6.2 µM; that for `CCOc1ccc(-n2c(-c3ccc(Br)cc3)c[n+]3c2CCCCC3)cc1` was 1 µM; that for `C#CCOCCOCCOCCNc1nc(N2CCN(C(=O)CCCCCCCCCCNC(=O)Cn3cc(C[C@@H](C)O)nn3)CC2)nc(N2CCN(C(=O)CCCCCCCCCCNC(=O)[C@@H]([C@H](C)CC)n3cc(CCCCCN)nn3)CC2)n1` was 7.83 µM. `COc1ccc(N=C2S/C(=C\c3ccc(N4CCOCC4)o3)C(=O)N2CCc2c[nH]c3ccccc23)cc1`: the AC50 is 13.8 µM. The value for `CC(C)(C)c1ccc(-n2ncc3c2CCCC3NC(=O)C2(C(N)=O)CC2)cc1` (stereo not given) was 6.85 µM. On to `COc1ccc(CN(C)c2ccc(S(=O)(=O)N3CCN(C)CC3)cc2[N+](=O)[O-])cc1OC`, for which the AC50 was 2.83 µM.

In the case of `O=C(Nc1ccc(Cl)c(Cl)c1)Nc1nnc(CC2=CCCCC2)s1`, the AC50 was 5.75 µM. The value for `O=C(NCc1cccnc1)c1cc(-c2ccco2)on1` was 2.27 µM; that for `COC(=O)c1ccccc1NC1=C/C(=N\S(=O)(=O)c2cccs2)c2ccccc2C1=O` was 8.33 µM.

As for `CCN1/C(=C/C=C/c2oc3ccc(-c4ccccc4)cc3[n+]2CC)Oc2ccc(-c3ccccc3)cc21`, the AC50 was 0.78 µM. The value for `COc1ccc(NS(=O)(=O)c2cccc(NC(=O)c3ccc(S(=O)(=O)N4CCCCCC4)cc3)c2)cc1` was 4.24 µM. The value for `C=C1C(=O)O[C@H]2C[C@@H](C)[C@@H]3C=CC(=O)[C@@]3(C)C[C@H]12` was 7.64 µM; that for `O=C(CCCCCCCCCCC(=O)NCc1cccnc1)NCc1cccnc1` was < 0.195 µM; that for `Cc1ccc(NC(=O)c2cc(S(=O)(=O)NCCC3=CCCCC3)ccc2F)cc1` was 7.48 µM. Turning to `N#Cc1ccc(NC(=O)Nc2ccc(Cl)cc2)cc1`, the AC50 is 6.57 µM.

In the case of `Cc1ccc(NC(=O)COc2ccc(N(C)C(=O)C(C)(C)C)cc2)cc1S(=O)(=O)N1CCCCC1`, the AC50 was 5.78 µM.
